Series [1] can be described thus: Microsomal stability in human liver microsomes (HLM). In kind it is in vitro ADME. The following applies: 1 μM test compound. The procedure: The procedure for investigating the metabolism of selected compounds was carried out in microsomal fractions of the liver (of rats, mice, humans) in the presence of a phase I metabolism cofactor (NADPH).
The rate of enzymatic decomposition of the compound in liver microsomes in in vitro analysis was determined by keeping a reaction mixture comprising 0.5 mg/ml of pooled human, rat or mouse liver microsomes, 1 μM test compound, 1.5 mM […] (Carbosynth, UK, cat. no. NN108711101) and 1.5 mM magnesium chloride in 0.1 M sodium phosphate buffer (pH 7.4) in a solid-state thermostat at 37° C. (XenoTech, USA, order no. H2610, cat. no. R1000, cat. no. M1000). Incubation was carried out in three replicates.
To determine the stability of compounds under sample preparation conditions, an aliquot in two replicates with the test compound and a microsomal fraction devoid of the NADPH cofactor, which was incubated for 40 minutes at 37° C.
Reactions were stopped at 0, 10, 20, 30 and 40 min time points by way of adding an ice mixture of acetonitrile:methanol (3:1) comprising an internal standard.
Samples were then centrifuged to remove the precipitated protein, supernatants were analyzed using HPLC-MS/MS to determine in vitro clearance (CLint) of the compounds. The Agilent 6410 mass spectrometer (Agilent, USA) combined with the Agilent 1260 Infinity II HPLC liquid chromatograph (Agilent, USA) and a cooling autosampler controlled by MassHunter software (Agilent, USA) was used as an HPLC-MS/MS system. Chromatographic analysis was performed on a C18 reversed-phase HPLC column (Agilent, Waters or equivalent) in a gradient elution mode in a system of mobile phases: 0.1% formic acid in water/0.1% formic acid in acetonitrile, flow rate: 0.5 ml/min, column T=35° C. Mass spectrometric detection was performed with electrospray ionization in multiple reaction monitoring mode. Precursor ions, fragment ions and collision energies for each substance were selected experimentally.
A graph of dependence of the logarithmic ratio between substance's peak area and internal standard's peak area vs time was built. The dependent coefficient of this line corresponded to the elimination rate constant k, on the basis of which the in vitro clearance CLint was calculated:
Based on resulting in vitro clearance CLint values, the microsomal stability of the selected compounds for humans, rats and mice was concluded.

In series [2] the test system is NCl-H82 (small cell lung cancer). The experiment in a line: Antiproliferative assay on NCl-H82 cells (AlamarBlue, 120 h). In kind it is cell-based. The following applies: mean value from several measurements.
The target of the next series is CDK9/Cyclin K (Homo sapiens, UniProt P50750). The experiment in a line: Inhibition of CDK9/Cyclin K kinase activity (ADP-Glo). It counts as biochemical. A digest of the protocol:
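Kinase preincubated with compound (11 points, 4-fold steps from 50 μM) for 10 minutes at 25° C. in kinase buffer A with DTT, then reacted 40-60 minutes at 25° C. with ATP and CDKtide, Histone H1 or PDKtide substrate. ADP formation read by ADP-Glo luminescence; IC50 from four-parameter fit.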

[3] abbreviates: mean of multiple measurement series, ATP 50 μM, read-out: CDK9/Cyclin K IC50.
Where [4] appears, read: mean value from several measurements, read-out: IC50 CDK9/Cyclin K.

Read-outs that look alike come from different tables or passages of the source.

Chain of CDK9/Cyclin K (P50750 whole entry): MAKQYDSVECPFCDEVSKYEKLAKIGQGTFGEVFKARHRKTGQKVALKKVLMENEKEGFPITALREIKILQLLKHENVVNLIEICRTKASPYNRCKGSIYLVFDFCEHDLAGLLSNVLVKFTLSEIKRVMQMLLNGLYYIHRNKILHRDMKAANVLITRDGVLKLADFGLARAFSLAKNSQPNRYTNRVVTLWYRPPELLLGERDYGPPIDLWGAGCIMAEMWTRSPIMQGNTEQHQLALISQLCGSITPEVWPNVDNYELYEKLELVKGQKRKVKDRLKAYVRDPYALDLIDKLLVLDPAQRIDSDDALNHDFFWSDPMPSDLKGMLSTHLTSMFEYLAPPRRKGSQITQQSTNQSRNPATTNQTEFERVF
Chain of CDK9/Cyclin K (O75909 whole entry partner): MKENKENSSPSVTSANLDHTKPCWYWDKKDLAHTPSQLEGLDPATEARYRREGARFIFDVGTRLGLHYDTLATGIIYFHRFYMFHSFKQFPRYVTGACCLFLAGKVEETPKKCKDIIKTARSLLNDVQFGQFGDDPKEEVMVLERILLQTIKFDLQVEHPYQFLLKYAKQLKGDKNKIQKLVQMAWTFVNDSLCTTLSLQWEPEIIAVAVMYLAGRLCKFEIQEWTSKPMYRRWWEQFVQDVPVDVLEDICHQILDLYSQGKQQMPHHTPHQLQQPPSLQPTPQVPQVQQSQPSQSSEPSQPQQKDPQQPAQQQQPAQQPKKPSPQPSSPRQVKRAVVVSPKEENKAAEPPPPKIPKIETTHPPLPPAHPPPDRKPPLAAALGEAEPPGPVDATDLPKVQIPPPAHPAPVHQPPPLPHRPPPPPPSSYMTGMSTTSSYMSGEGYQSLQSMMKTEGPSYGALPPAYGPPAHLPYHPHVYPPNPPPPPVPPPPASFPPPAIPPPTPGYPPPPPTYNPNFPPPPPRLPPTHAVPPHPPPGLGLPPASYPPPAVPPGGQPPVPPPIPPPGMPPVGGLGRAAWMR

As to `CN1CCCc2c(-c3nc(N[C@H]4CCC(C)(C)NC4)ncc3C(F)(F)F)c[nH]c2C1=O` [CDK7_1187, 3-(2-{[(3S)-6,6-dimethylpiperidin-3-yl]amino}-5-(trifluoromethyl)py-rimidin-4-yl)-7-methyl-1H,4H,5H,6H,7H, 8H-pyrrolo[2,3-c]azepin-8-one], in series [1], the “In vitro clearance CLint (HLM)” value is on record as “B (50 μl/(min · mg of protein) > Clint > 20 μl/(min · mg of protein))”. The IC50 in series [2] was below 10 nM; on CDK9/Cyclin K (setting [3]), 182 nM; at CDK9/Cyclin K (setting [4]) it was above 200 nM.

As for `Cn1cc(N2CCCc3c(-c4nc(N[C@H]5CCCNC5)ncc4C(F)(F)F)c[nH]c3C2=O)cn1` [CDK7_955, 7-(1-methyl-1H-pyrazol-4-yl)-3-(2-{[(3S)-piperidin-3-yl]amino}-5-(trifluoromethyl)py-rimidin-4-yl)-1H,4H,5H,6H,7H, 8H-pyrrolo[2,3-c]azepin-8-one], the “In vitro clearance CLint (HLM)” value in series [1] is reported as “A (Clint < 20 μl/(min · mg of protein))”. The IC50 is above 1000 nM in series [2] and above 200 nM at CDK9/Cyclin K (setting [4]).

As to `O=C1c2[nH]cc(-c3nc(NC4CCCNC4)ncc3C(F)(F)F)c2CCCN1C1CC1` (stereo not shown) [CDK7_1188], the “In vitro clearance CLint (HLM)” value in series [1] is on record as “A (Clint < 20 μl/(min · mg of protein))”. The results for the IC50 (in series [2]; at CDK9/Cyclin K (setting [4])) were below 10 nM and above 200 nM, respectively.

As to `O=c1c2[nH]cc(-c3nc(N[C@H]4CCCNC4)ncc3C(F)(F)F)c2ccn1Cc1ccccc1` [CDK7_961, 6-benzyl-3-(2-{[(3S)-piperidin-3-yl]amino}-5-(trifluoromethyl)py-rimidin-4-yl)-1H,6H,7H-pyrrolo[2,3-c]pyridin-7-one], the “In vitro clearance CLint (HLM)” value in series [1] is recorded as “A (Clint < 20 μl/(min · mg of protein))”. Besides, the IC50 is below 10 nM in series [2], 69 nM at CDK9/Cyclin K (setting [3]) and 50 to 200 nM on CDK9/Cyclin K (setting [4]).

As to `O=C1c2[nH]cc(-c3nc(NC4CCCNC4)ncc3C(F)(F)F)c2CCCN1c1nccs1` (stereo not shown) [CDK7_1172], the “In vitro clearance CLint (HLM)” value in series [1] is listed as “B (50 μl/(min · mg of protein) > Clint > 20 μl/(min · mg of protein))”. In addition, the IC50 in series [2] is 10 to 100 nM; on CDK9/Cyclin K (setting [4]), above 200 nM.

With `Cn1cc(-n2ccc3c(-c4nc(N[C@H]5CCCNC5)ncc4C(F)(F)F)c[nH]c3c2=O)cn1` [CDK7_959, 6-(1-methyl-1H-pyrazol-4-yl)-3-(2-{[(3S)-piperidin-3-yl]amino}-5-(trifluoromethyl)py-rimidin-4-yl)-1H,6H,7H-pyrrolo[2,3-c]pyridin-7-one], in series [1], the “In vitro clearance CLint (HLM)” value is given as “A (Clint < 20 μl/(min · mg of protein))”. Further, the IC50 in series [2] was below 10 nM; on CDK9/Cyclin K (setting [3]), 106 nM; on CDK9/Cyclin K (setting [4]), 50 to 200 nM.

`O=C1c2[nH]cc(-c3nc(N[C@H]4CCC5(CC5)NC4)ncc3C(F)(F)F)c2CCCN1C1CC1` [CDK7_1276, 3-(2-{[(6S)-4-azaspiro[2.5]octan-6-yl]amino}-5-(trifluoromethyl)py-rimidin-4-yl)-7-cyclopropyl-1H,4H,5H,6H,7H, 8H-pyrrolo[2,3-c]azepin-8-one]: in series [1], the “In vitro clearance CLint (HLM)” value is on record as “B (50 μl/(min · mg of protein) > Clint > 20 μl/(min · mg of protein))”. The IC50 is below 10 nM in series [2], 296 nM at CDK9/Cyclin K (setting [3]) and above 200 nM at CDK9/Cyclin K (setting [4]).

Take `Cn1cc(N2CCCc3c(-c4nc(N[C@H]5CCC(C)(C)NC5)ncc4C(F)(F)F)c[nH]c3C2=O)cn1` [CDK7_1122, 3-(2-{[(3S)-6,6-dimethylpiperidin-3-yl]amino}-5-(trifluoromethyl)py-rimidin-4-yl)-7-(1-methyl-1H-pyrazol-4-yl)-1H,4H,5H,6H,7H, 8H-pyrrolo[2,3-c]azepin-8-one]: the “In vitro clearance CLint (HLM)” value in series [1] is listed as “A (Clint < 20 μl/(min · mg of protein))”. Further, the IC50 at CDK9/Cyclin K (setting [4]) is above 200 nM.

In the case of `CC1(C)CC[C@H](Nc2ncc(C(F)(F)F)c(-c3c[nH]c4c3CCCN(CC3CC3)C4=O)n2)CN1` [CDK7_1227, 7-(cyclopropylmeth-yl)-3-(2-{[(3S)-6,6-dimethylpiperidin-3-yl]amino}-5-(trifluoromethyl)py-rimidin-4-yl)-1H,4H,5H,6H,7H, 8H-pyrrolo[2,3-c]azepin-8-one], the IC50 in series [2] was 10 to 100 nM; at CDK9/Cyclin K (setting [4]) it was above 200 nM.

As to `CC(C)N1CCCc2c(-c3nc(N[C@H]4CCC(C)(C)NC4)ncc3C(F)(F)F)c[nH]c2C1=O` [CDK7_1229, 3-(2-{[(3S)-6,6-dimethylpiperidin-3-yl]amino}-5-(trifluoromethyl)py-rimidin-4-yl)-7-(propan-2-yl)-1H,4H,5H,6H,7H, 8H-pyrrolo[2,3-c]azepin-8-one], the “In vitro clearance CLint (HLM)” value in series [1] is “B (50 μl/(min · mg of protein) > Clint > 20 μl/(min · mg of protein))”. Further, the IC50 in series [2] was 10 to 100 nM; on CDK9/Cyclin K (setting [3]), 485 nM; at CDK9/Cyclin K (setting [4]), above 200 nM.

Regarding `Cn1cc(-n2ccc3c(-c4nc(N[C@H]5CCC(C)(C)NC5)ncc4C(F)(F)F)c[nH]c3c2=O)cn1` [CDK7_1123, 3-(2-{[(3S)-6,6-dimethylpiperidin-3-yl]amino}-5-(trifluoromethyl)py-rimidin-4-yl)-6-(1-methyl-1H-pyrazol-4-yl)-1H,6H,7H-pyrrolo[2,3-c]pyridin-7-one], in series [1], the “In vitro clearance CLint (HLM)” value is recorded as “A (Clint < 20 μl/(min · mg of protein))”. Besides, the IC50 was 10 to 100 nM in series [2], 265 nM at CDK9/Cyclin K (setting [3]) and above 200 nM at CDK9/Cyclin K (setting [4]).

Consider `CCN1CCCc2c(-c3nc(N[C@H]4CCC(C)(C)NC4)ncc3C(F)(F)F)c[nH]c2C1=O` [CDK7_1259, 3-(2-{[(3S)-6,6-dimethylpiperidin-3-yl]amino}-5-(trifluoromethyl)py-rimidin-4-yl)-7-ethyl-1H,4H,5H,6H,7H, 8H-pyrrolo[2,3-c]azepin-8-one], for which the figures for the IC50 (in series [2]; at CDK9/Cyclin K (setting [4])) were 10 to 100 nM and above 200 nM, respectively.

For `CC(C)N1CCCc2c(-c3nc(N[C@H]4CCC5(CC5)NC4)ncc3C(F)(F)F)c[nH]c2C1=O` [CDK7_1277, 3-(2-{[(6S)-4-azaspiro[2.5]octan-6-yl]amino}-5-(trifluoromethyl)py-rimidin-4-yl)-7-(propan-2-yl)-1H,4H,5H,6H,7H, 8H-pyrrolo[2,3-c]azepin-8-one], the “In vitro clearance CLint (HLM)” value in series [1] was “B (50 μl/(min · mg of protein) > Clint > 20 μl/(min · mg of protein))”. Further, the IC50 in series [2] was below 10 nM; at CDK9/Cyclin K (setting [3]), 442 nM; on CDK9/Cyclin K (setting [4]) it was above 200 nM.

Turning to `CC1(C)CC[C@H](Nc2ncc(C(F)(F)F)c(-c3c[nH]c4c3CCCN(C3CC3)C4=O)n2)CN1` [CDK7_1225, 7-cyclopropyl-3-(2-{[(3S)-6,6-dimethylpiperidin-3-yl]amino}-5-(trifluoromethyl)py-rimidin-4-yl)-1H,4H,5H,6H,7H, 8H-pyrrolo[2,3-c]azepin-8-one], in series [1], the “In vitro clearance CLint (HLM)” value is on record as “A (Clint < 20 μl/(min · mg of protein))”. Besides, the IC50 is 10 to 100 nM in series [2], 441 nM at CDK9/Cyclin K (setting [3]) and above 200 nM on CDK9/Cyclin K (setting [4]).

Regarding `CC1CCc2c(-c3nc(N[C@H]4CCCNC4)ncc3C(F)(F)F)c[nH]c2C(=O)N1C` (stereo partly drawn) [CDK7_1254, 6,7-dimethyl-3-(2-{[(3S)-piperidin-3-yl]amino}-5-(trifluoromethyl)py-rimidin-4-yl)-1H,4H,5H,6H,7H, 8H-pyrrolo[2,3-c]azepin-8-one], in series [1], the “In vitro clearance CLint (HLM)” value is “A (Clint < 20 μl/(min · mg of protein))”. For the same compound, the IC50 in series [2] was 10 to 100 nM; at CDK9/Cyclin K (setting [4]) it was above 200 nM.

For the compound `CN1CCCc2c(-c3nc(N[C@H]4CCCNC4)ncc3C(F)(F)F)c[nH]c2C1=O` [CDK7_953, 7-methyl-3-(2-{[(3S)-piperidin-3-yl]amino}-5-(trifluoromethyl)py-rimidin-4-yl)-1H,4H,5H,6H,7H, 8H-pyrrolo[2,3-c]azepin-8-one], the “In vitro clearance CLint (HLM)” value in series [1] is “A (Clint < 20 μl/(min · mg of protein))”. Moreover, the IC50 in series [2] was below 10 nM; on CDK9/Cyclin K (setting [3]) it was 60 nM; on CDK9/Cyclin K (setting [4]) it was 50 to 200 nM.

As for `O=C1c2[nH]cc(-c3nc(N[C@H]4CCCNC4)ncc3C(F)(F)F)c2CCCN1c1ccccn1` [CDK7_1176, 3-(2-{[(3S)-piperidin-3-yl]amino}-5-(trifluoromethyl)py-rimidin-4-yl)-7-(pyridin-2-yl)-1H,4H,5H,6H,7H, 8H-pyrrolo[2,3-c]azepin-8-one], the “In vitro clearance CLint (HLM)” value in series [1] is given as “A (Clint < 20 μl/(min · mg of protein))”.

Source of the values: patent US20260137698A1, “CYCLIN-DEPENDENT KINASE 7 INHIBITORS” (JOINT STOCK COMPANY «BIOCAD», priority 2022, published 2026).
